Test results taken from the NIST ThermoML archive (doi:10.1016/j.fluid.2005.11.015).
Numbers after ± are expanded uncertainties.

Conditions: Crystal; visual observation

Compound: CCCCn1cc[n+](C)c1.[Cl-] [1-butyl-3-methylimidazolium chloride]
- Normal melting temperature: 67.0 ± 2 °C
